Data reported in patent publication US11759433B2, “Compositions and methods for regulating the endocannabinoid system” (Sytheon Ltd, priority 2019, dated 2023).
Read-outs that look alike come from different tables or passages of the source.

Assays:
[1] = molecular target: T1, Fatty Acid Amide Hydrolase (FAAH) (Homo sapiens, UniProt O00519); assay: FAAH inhibitor screening assay (Cayman kit); type: biochemical
T1 construct: purchased Cayman 10005196
T1 sequence (O00519 1-579): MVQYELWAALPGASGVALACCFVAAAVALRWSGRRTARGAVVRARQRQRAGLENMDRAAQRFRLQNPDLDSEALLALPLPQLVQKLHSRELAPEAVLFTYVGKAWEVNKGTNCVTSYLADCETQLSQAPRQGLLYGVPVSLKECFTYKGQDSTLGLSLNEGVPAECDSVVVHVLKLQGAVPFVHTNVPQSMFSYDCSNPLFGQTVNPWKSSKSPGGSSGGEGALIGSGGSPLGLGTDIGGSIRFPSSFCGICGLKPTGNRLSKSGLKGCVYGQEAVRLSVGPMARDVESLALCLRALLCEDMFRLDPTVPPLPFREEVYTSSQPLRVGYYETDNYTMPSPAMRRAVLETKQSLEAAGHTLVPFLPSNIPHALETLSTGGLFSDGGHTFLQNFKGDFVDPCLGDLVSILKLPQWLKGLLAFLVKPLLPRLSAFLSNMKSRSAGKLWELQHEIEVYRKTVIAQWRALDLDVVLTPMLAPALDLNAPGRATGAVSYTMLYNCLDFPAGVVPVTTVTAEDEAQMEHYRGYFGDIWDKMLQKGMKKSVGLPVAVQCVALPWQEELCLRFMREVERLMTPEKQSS
Protocol: A 0.01 gram of sample of each of the indicated Test Samples identified in Table 3 was dissolved in 1 mL DMSO to make stock solution. […] The analysis was done following FAAH inhibitor screening assay kit (Cayman cat #10005196) protocol.

[2] = molecular target: T2, Monoacyl Glycerol Lipase (MAGL) (Homo sapiens, UniProt Q99685); assay: Monoacyl Glycerol Lipase (MAGL) inhibitory activity; type: biochemical
T2 construct: purchased Cayman 10007812
T2 sequence (Q99685 1-303): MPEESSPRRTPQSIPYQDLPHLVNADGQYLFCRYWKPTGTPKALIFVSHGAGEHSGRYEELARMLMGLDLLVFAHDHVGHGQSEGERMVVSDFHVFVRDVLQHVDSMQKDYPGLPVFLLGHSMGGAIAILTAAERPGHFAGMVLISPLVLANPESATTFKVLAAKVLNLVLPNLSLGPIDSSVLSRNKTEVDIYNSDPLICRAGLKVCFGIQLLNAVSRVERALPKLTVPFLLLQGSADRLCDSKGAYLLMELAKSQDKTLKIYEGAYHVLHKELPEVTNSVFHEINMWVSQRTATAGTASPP
Protocol: A 0.1 gram of sample of each of the indicated Test Samples identified in Table 3 was dissolved in 1 mL DMSO to make stock solution. […] Final concentration in well: 10 μL of sample, 5.6 mU MAGL (Cayman cat. #10007812), and 23.6 μM 2Arachidonoyl Glycerol (Cayman cat. #62160). This study was done by following the protocol described by J L Blankman et al. (Blankmann et., A comprehensive profile of brain enzymes that hydrolyze the endocannabinoid 2-Arachidonyl glycerol, Chem & Biol, 14(12); 1347-1356, 2007).

[3] = molecular target: T3, Fatty Acid Binding Protein 5 (FABP5) (Homo sapiens, UniProt Q01469); assay: Fatty Acid Binding Protein 5 inhibitory activity (FABP-5 ELISA kit)
T3 construct: purchased Raybiotech 268-10276-1
Protocol: 0.1 gram of sample of each of the indicated Test Samples identified in Table 3 was dissolved in 1 mL DMSO and diluted with Diluent C from the FABP-5 ELISA Kit (Raybiotech #ELH-FABP5) to a make stock solution of 800 μg/ml. […] 50 μl of sample and 50 μl of 200 ng/ml of FABP-5 (Raybiotech #268-10276-1) was added per well for the analysis. The analysis was done following protocol of the aforementioned kit.

IL-8 = IL-8 output in RHE-conditioned medium (sandwich ELISA); type: cell-based, Human; settings: for IL-8 (% Control): 2 mg/cm^2 on RHE; for Effect on level of IL-8, in words: tissue culture conditioned medium
Protocol: (§1) A series of tests were conducted to assess the impact of the compositions according to the present teaching on the stress biomarkers cortisol and interleukin-8 8). The compounds and compositions to be evaluated were stored at room temperature prior to use and, for use, were solubilized in caprylic acid/caprylic triglycerides. The tests were conducted using reconstituted human epithelium-conditioned medium. Reconstituted Human Epidermis tissues were obtained from Zen-Bio (Research Triangle, NC; order #51500) and were stored o/n at 4° C. The following day the tissues were transferred to 6 well plates and allowed to equilibrate for 4 h in the medium provided by the manufacturer (ZenSkin RHE Assay Medium, lot #031620). Thereafter the medium was change with fresh medium and the Test Materials, as identified in Table 4, applied to the tissue samples in an amount of 2 mg/cm^2 with a positive displacement pipette and spread evenly on top of the tissues. The solvent was used as the negative control.
IL-8—Similarly, interleukin-8 (IL-8) output in the cell culture conditioned medium was measured by sandwich ELISA using antibody pair from Invitrogen (ThermoFisher, kit cat. #CHC1303) and antibody pair from BioLegend (cat. #501101 and #501201), respectively. All colorimetric measurements were performed using Molecular Devices microplate reader MAX190 and SoftMax3.1.2PRO software.
(§2) In both studies the statistical significance was assessed with two-tail Student test. Deviations of ≥15% as compared to water control with p values below 0.05 were considered statistically significant.

Cortisol = Cortisol output in RHE-conditioned medium; type: cell-based, Human; settings: for Cortisol (% Control): 2 mg/cm^2 on RHE; for Cortisol (% Control) / Cortisol std MTT (% Control): 48 h; for Cortisol std MTT (% Control): standardised to MTT tissue viability
Protocol: as §1
Cortisol—After 48 h of incubation, the cortisol output in the cell culture conditioned medium was measured with the Cortisol Parameter Assay Kit from RnD (Minneapolis, MN cat. #KGE008B), while tissue viability was assessed by the MTT technique, using the manufacturer's protocol and reagents.
as §2

[4] = read-out: FAAH IC50 (converted)
[5] = read-out: MAGL IC50 (converted)

T3 sequence (Q01469 whole entry): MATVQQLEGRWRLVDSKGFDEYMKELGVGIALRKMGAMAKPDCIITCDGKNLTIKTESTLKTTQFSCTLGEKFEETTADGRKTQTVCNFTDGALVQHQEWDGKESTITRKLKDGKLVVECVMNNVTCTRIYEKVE

SMILES	IC50 [1, 4]	IC50 [2, 5]	IC50 [3]	IL-8 (% Control) (IL-8; 0.1%)	IL-8 (% Control) (IL-8; 0.25%)	IL-8 (% Control) (IL-8; 0.5%)	Effect on level of IL-8, in words (IL-8)	Cortisol (% Control) (Cortisol; 0.1%)	Cortisol std MTT (% Control) (Cortisol; 0.1%)	Cortisol (% Control) (Cortisol; 0.25%)	Cortisol std MTT (% Control) (Cortisol; 0.25%)	Cortisol (% Control) (Cortisol; 0.5%)	Cortisol std MTT (% Control) (Cortisol; 0.5%)	IC50 ([1]; FAAH IC50)	IL-8 (% Control) (IL-8; 1%)	Cortisol (% Control) (Cortisol; 1%)	Cortisol std MTT (% Control) (Cortisol; 1%)	Effect on level of cortisol, in words (Cortisol; higher levels)	Effect on level of cortisol, in words (Cortisol; low levels)	IC50 [2]
CCCCC/C=C\C/C=C\CCCCCCCC(=O)OCC [Ethyl Linoleate (Synovea ® EL), Ethyl linoleate]	9.81 µM	7710 µM	1490 µM	–	–	–	–	–	–	–	–	–	–	–	–	–	–	–	–	–
CCCCC/C=C\C/C=C\CCCCCCCC(=O)OCC [Ethyl Linoleate 98, Ethyl linoleate]	3.6 µM	–	–	–	–	–	–	–	–	–	–	–	–	–	–	–	–	–	–	–
C=C[C@@](C)(/C=C/c1ccc(O)cc1)CCC=C(C)C [Bakuchiol]	6.71 µM	183 µM	449 µM	92 % Control	92 % Control	86 % Control	marginal effect in reducing	51 % Control	56 % Control	64 % Control	87 % Control	54 % Control	79 % Control	–	–	–	–	–	–	–
C=C(C)[C@@H]1CCC(C)=C[C@H]1c1c(O)cc(CCCCC)cc1O [Cannabidiol 99, Cannabidiol]	–	–	–	103 % Control	–	107 % Control	no effect or marginally increased	72 % Control	82 % Control	–	–	84 % Control	95 % Control	99.5 µM	108 % Control	134 % Control	174 % Control	increased the cortisol level	modest decrease in cortisol	13100 µM
